As a reminder, the Kd is the equilibrium constant for the complex coming apart.

Peptide text beside a SMILES is read from it. * marks the point of attachment. Cbz = O=C(OCc1ccccc1)*

These results are taken from paper PMC9036094, “Antigen-derived peptides engage the ER stress sensor IRE1α to curb dendritic cell cross-presentation” (The Journal of Cell Biology, 2022).

Assay [1] concerns IRE1α in MyD88 KO Flt3L-derived BMDCs. Description: IRE1α activation in MyD88 KO Flt3L-derived BMDCs (immunoblot). The class given is cell-based, mouse. As to conditions: ovalbumin 500 μg/ml or LPS 10 μg/ml, 4 h. As for the experimental part:
(§1) Figure S1. Antigen pulsing of BMDCs activates IRE1α. (A) BMDCs were treated with MG132 (5 μM) or ovalbumin (500 μg/ml) for indicated time points and analyzed by IB. (B) BMDCs were pulsed with ovalbumin (500 μg/ml) and G9668 (3 μM) for indicated time periods and analyzed by IB. (C) Molecular structure, potency, and kinase selectivity of G9668. (D) Schematic representation of G9668 interaction with 220 kinases at 1 μM. Size and color of circles represent interaction strength. Analysis was conducted by KinomeScan. (E) BMDCs were pulsed for 4 h with APC-tagged ovalbumin or soluble CD4-Fc protein (500 μg/ml) with amiloride (10 μM); uptake of protein was assayed by flow cytometry (n = 3). (F) WT or MyD88 KO Flt3L-derived BMDCs were pulsed with ovalbumin (500 μg/ml) or soluble CD4-Fc protein (500 μg/ml), or treated with LPS (10 μg/ml) for 4 h and analyzed by IB. (G) MEFs and BMDCs were pulsed with ovalbumin or treated with Tg (100 nM) for 4 h and analyzed by IB. Images in A, B, F, and G represent at least two similar experiments, and molecular weights represent kD; E bar graphs represent mean ± SD from three independent biological repeats. Analysis for E was performed using unpaired, two-tailed t test; *, P ≤ 0.05; **, P ≤ 0.01. Source data are available for this figure: SourceData FS1. […]
On the technique in general: A western blot detects proteins with antibodies after separation by electrophoresis.

The next assay concerns the target heat-denatured ovalbumin (UniProt P01012). As to the kind of experiment: ELISA; native or heat-denatured ovalbumin coated on a 96-well plate, blocked with 1% BSA; IRE1α LD-Fc (10 μg/ml) in PBS with 20 mM Hepes, 100 mM KOAc, 0.2% tween-20, 2 h, room temperature; detection with HRP-conjugated anti-human Fc antibody. Background: An ELISA detects its analyte on a solid surface through an enzyme-linked reagent.

Assay [2] concerns IRE1α (XBP1s, pIRE1α) in BMDCs. As to the kind of experiment: IRE1α activation in BMDCs (immunoblot). The class given is cell-based, mouse. As to conditions: in words; for IRE1α activation: GM-CSF + IL-4 BMDCs, immunoblot for XBP1s/pIRE1α. How it is done: Figure 1. Antigen pulsing of BMDCs activates IRE1α. (A) BMDCs were pulsed with ovalbumin (starting at 62.5 μg/ml and sequentially doubled) and analyzed by immunoblot (IB) for the indicated markers. (B) BMDCs were pulsed with ovalbumin (starting at 500 μg/ml and sequentially halved) or […] (1 μM), or stimulated with tunicamycin (1 μg/ml) or poly-I:C (25 μg/ml) for 4 h, and analyzed by IB. (C) BMDCs were pulsed with ovalbumin (500 μg/ml) for indicated time points and analyzed by IB. (D) BMDCs were pulsed for 4 h with ovalbumin or lysates derived from the indicated cell lines (500 μg/ml protein) and analyzed by IB. […] (F) Upon removal from bone marrow, total bone marrow cells were transfected with non-targeting control (NTC) or TAP1-targeting gRNAs, along with CRISPR/Cas9 delivery constructs. Cells were then subjected to standard BMDC-differentiation protocol, pulsed with ovalbumin (500 μg/ml) for 4 h, and analyzed by IB. All IB images are representative of at least two similar experiments, and molecular weights represent kD. Source data are available for this figure: SourceData F1.
For purification and differentiation of BMDCs, the femur and tibia bones of C57BL/6 mice were flushed with sterile PBS, and bone marrow cells were then cultured in RPMI1640 media as described above and further supplemented with […] β2-mercaptoethanol (Sigma-Aldrich), 20 ng/ml GM-CSF (BioLegend), and 10 ng/ml IL-4 (BioLegend) for 9 d, with media being replenished every 3 d. Where indicated, Flt3L-BMDCs were similarly generated using media supplemented with 200 ng/ml recombinant mouse Flt3L (PeproTech; [Brasel et al., 2000]). After 9 d of culture, BMDCs were routinely verified to be >90% CD11c^+ MHC-II^high by flow cytometry analysis.
Thapsigargin (Sigma-Aldrich) was used at 100 nM, tunicamycin (Sigma-Aldrich) was used at 5 μg/ml, MG132 (Sigma-Aldrich) was used at 5 μM, Amiloride (Sigma-Aldrich) was used at 10 μM, actinomycin D (Sigma-Aldrich) was used at 4 μg/ml, LPS (Sigma-Aldrich) was used at 10 μg/ml, and poly-I:C (Sigma-Aldrich) was used at 25 μg/ml. Ovalbumin (Sigma-Aldrich), EF-OVA (EndoFit; InvivoGen), […] peptide (Sigma-Aldrich), and human CD4-Fc fusion protein (generated in-house at Genentech) were dissolved in PBS prior to pulsing and used at indicated concentrations.
Cells were lysed in PBS solution supplemented with 1X radioimmunoprecipitation assay buffer (Millipore) and 2X Halt protease-phosphatase inhibitor cocktail (Thermo Fisher Scientific). Upon clearance, samples were analyzed by SDS-PAGE, electrotransferred to nitrocellulose membranes (Invitrogen), and blocked by 5% powdered milk in PBSt (PBS supplemented with 0.1% tween) solution. Development was conducted with ECL reagent (Thermo Fisher Scientific) and imaging was performed with the ChemiDoc ZRS+ imager (Bio-Rad). Antibodies used for Western blot analysis include IRE1α (3294, rabbit; Cell Signaling Technology), β-actin (5125, rabbit; Cell Signaling), GAPDH (97166, mouse; Cell Signaling), ATF6 (66563-1-Ig, mouse; ProteinTech), TAP1 (12341, rabbit; Cell Signaling), CHOP (2895, mouse; Cell Signaling), ATF4 (11815, rabbit; Cell Signaling), ovalbumin (P1-196, rabbit; Thermo Fisher Scientific), human Fc (ab977225, rabbit; Abcam), Myc tag (2272, rabbit; Cell Signaling), and biotin (5597, rabbit; Cell Signaling). IRE1α lumenal domain (mouse), XBP1s (rabbit), and pIRE1α (rabbit) antibodies were generated at Genentech. Secondary antibodies used were for mouse (715-035-150; The Jackson Laboratory) and rabbit (711-035-152; The Jackson Laboratory).

For the next assay, the system named is ATF6 in BMDCs. Description: ATF6 activation in BMDCs (immunoblot, proteolytic processing). The format is cell-based, mouse. The note with it: MG132 5 μM or ovalbumin 500 μg/ml, in words. How it is done: as §1
In assay [3] the test system is PERK (ATF4, CHOP) in BMDCs. As to the kind of experiment: PERK activation in BMDCs (immunoblot of ATF4 and CHOP). The format is cell-based, mouse. As to conditions: MG132 5 μM or ovalbumin 500 μg/ml, in words. As for the experimental part: as §1
In assay [4] the test system is IRE1α LD-Fc. Description: Plate-based ovalbumin binding to IRE1α LD-Fc. On the set-up: species or system human. As to conditions: 2 h, room temperature. As for the experimental part:
(§2) For experiments testing ovalbumin binding, a human LD-Fc was used at indicated concentrations. LD-Fc is comprised of amino acids M1-D443 of IRE1α fused C-terminally to a linker ([…]) followed by the human IgG1 hinge and Fc portion. Ovalbumin (Sigma-Aldrich) was dissolved in sterile PBS and used in native state or denatured as indicated by incubation at 95°C buffer for 10 min.
For plate-based binding experiments, native or heat-denatured ovalbumin at indicated concentrations was bound to a flat-bottom 96-well plate (Corning Inc.) with coating buffer (BioLegend), washed with PBSt, blocked with 1% BSA in PBS, and subsequently incubated with IRE1α LD-Fc (10 μg/ml) in binding buffer composed of PBS with 20 mM Hepes, 100 mM KOAc, and 0.2% tween-20 for 2 h at room temperature. Plates were washed again with PBSt and incubated with an anti-human Fc HRP-conjugated antibody (ab977225; Abcam). Development was performed with 3,3′,5,5′-Tetramethylbenzidine solution and terminated with Stop solution (BioLegend). Readings were taken with a SpectraMax M2 spectrometer (Molecular Devices).

In assay [5] the test system is IRE1α LD-Fc. As to the kind of experiment: Co-immunoprecipitation of ovalbumin with IRE1α LD-Fc. The format is binding, human. As to conditions: LD-Fc 10 μg/ml, 2 h; ovalbumin 1-300 μg/ml; in words. As for the experimental part:
as §2
For co-immunoprecipitation experiments, IRE1α LD-Fc (10 μg/ml) and ovalbumin (indicated concentrations) were co-incubated in binding buffer (as described above) for 2 h and then immunoprecipitated with anti-IRE1α LD antibody (made in-house at Genentech), conjugated to sepharose beads, overnight at 4°C. Beads were subsequently washed four times with lysis buffer and boiled in SDS sample buffer for 10 min. Samples were then analyzed by SDS-PAGE followed by immunoblot.

Turning to “lipopolysaccharide [LPS, reference compound]”, in assay [1], the “IRE1α activation, MyD88 KO BMDCs” value is “failed to activate IRE1α”.
For “IRE1α lumenal domain fused to an Fc tag (IRE1α LD-Fc) (from UniProt O75460 19-443) (Fc fusion)”, the dissociation constant Kd in the assay with heat-denatured ovalbumin was determined as 300 µM.
For `CC(C)C[C@@H](C=O)NC(=O)[C@H](CC(C)C)NC(=O)[C@H](CC(C)C)NC(=O)OCc1ccccc1` [MG132, reference compound] (Cbz-Leu-Leu-Leu-aldehyde), the IRE1α activation result in assay [2] was “robust activation”. Also, the ATF6 activation result in the assay with ATF6 in BMDCs was “robust activation”. Besides, in assay [3], the PERK activation entry is recorded as “robust activation”.
As for “SIINFEKL [ovalbumin-derived octapeptide, reference compound]”, in assay [2], the IRE1α activation result was “little effect on IRE1α activity”.
Regarding `N=C(N)NC(=O)c1nc(Cl)c(N)nc1N` [amiloride, reference compound], the “block of antigen-induced IRE1α activation” value in assay [2] (BMDCs pulsed with antigen 500 μg/ml, G9668 3 μM or amiloride 10 μM) is given as “blocked antigen-induced IRE1α stimulation in BMDCs”.
Turning to tunicamycin [reference compound], the IRE1α activation result in assay [2] is given as “potent pharmacological ER-stressor”.
Same read-out and setting: under “polyinosinic:polycytidylic acid [poly-I:C, reference compound]” stands “much weaker IRE1α activation than did the potent pharmacological ER-stressor tunicamycin”.

B1: heat-denatured ovalbumin: ovalbumin denatured by incubation at 95°C for 10 min (protein)
chain: MGSIGAASMEFCFDVFKELKVHHANENIFYCPIAIMSALAMVYLGAKDSTRTQINKVVRFDKLPGFGDSIEAQCGTSVNVHSSLRDILNQITKPNDVYSFSLASRLYAEERYPILPEYLQCVKELYRGGLEPINFQTAADQARELINSWVESQTNGIIRNVLQPSSVDSQTAMVLVNAIVFKGLWEKAFKDEDTQAMPFRVTEQESKPVQMMYQIGLFRVASMASEKMKILELPFASGTMSMLVLLPDEVSGLEQLESIINFEKLTEWTSSNVMEERKIKVYLPRMKMEEKYNLTSVLMAMGITDVFSSSANLSGISSAESLKISQAVHAAHAEINEAGREVVGSAEAGVDAASVSEEFRADHPFLFCIKHIATNAVLFFGRCVSP
Consider B1, for which, in the assay on IRE1α LD-Fc [4] (LD-Fc 10 μg/ml, in words), the “binding to immobilized IRE1α LD-Fc” value was “specific and saturable binding”. Also, the Kd on IRE1α LD-Fc [4] (plate-based, IRE1α LD-Fc 10 μg/ml, estimated, read-out: equilibrium dissociation constant (Kd)) was ~300 µM. In the assay on IRE1α LD-Fc [5], the “co-immunoprecipitation with IRE1α LD-Fc” value is “concentration-dependent association”.
